Reference: PubChem BioAssay (NCI)
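Five concentrations, 48 hours, 96-well plates. GI50 = concentration required for 50% inhibition of growth. TGI: total growth inhibition.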

What was measured:
Test in all cases: DTP human tumour cell line panel, 48 h
SF-268 CNS = test system: SF-268 CNS
SK-MEL-28 melanoma = test system: SK-MEL-28 melanoma
SF-539 CNS = test system: SF-539 CNS
SK-MEL-5 melanoma = test system: SK-MEL-5 melanoma
HOP-62 NSCLC = test system: HOP-62 NSCLC
SN12C renal = test system: SN12C renal
NCI-H460 lung = test system: NCI-H460 lung
SF-295 CNS = test system: SF-295 CNS
TK-10 renal = test system: TK-10 renal
COLO 205 colon = test system: COLO 205 colon
OVCAR-4 ovarian = test system: OVCAR-4 ovarian
SK-MEL-2 melanoma = test system: SK-MEL-2 melanoma
RXF 393 renal = test system: RXF 393 renal
MDA-MB-435 = test system: MDA-MB-435
SNB-19 CNS = test system: SNB-19 CNS
BT-549 breast = test system: BT-549 breast
SR leukemia = test system: SR leukemia
KM12 colon = test system: KM12 colon
UACC-62 melanoma = test system: UACC-62 melanoma
ACHN renal = test system: ACHN renal
UO-31 renal = test system: UO-31 renal
OVCAR-3 ovarian = test system: OVCAR-3 ovarian
MALME-3M melanoma = test system: MALME-3M melanoma
NCI-H522 lung = test system: NCI-H522 lung
EKVX NSCLC = test system: EKVX NSCLC
U251 CNS = test system: U251 CNS
786-0 renal = test system: 786-0 renal
HS 578T breast = test system: HS 578T breast
OVCAR-5 ovarian = test system: OVCAR-5 ovarian
IGROV1 ovarian = test system: IGROV1 ovarian
SNB-75 CNS = test system: SNB-75 CNS
OVCAR-8 ovarian = test system: OVCAR-8 ovarian
T-47D breast = test system: T-47D breast
HCT-116 colon = test system: HCT-116 colon
M14 melanoma = test system: M14 melanoma
HCT-15 colon = test system: HCT-15 colon
HL-60(TB) leukemia = test system: HL-60(TB) leukemia
NCI/ADR-RES ovarian = test system: NCI/ADR-RES ovarian
NCI-H226 lung = test system: NCI-H226 lung
A498 renal = test system: A498 renal
NCI-H23 lung = test system: NCI-H23 lung
MDA-MB-231 breast = test system: MDA-MB-231 breast
CAKI-1 renal = test system: CAKI-1 renal
RPMI-8226 leukemia = test system: RPMI-8226 leukemia
K-562 leukemia = test system: K-562 leukemia
UACC-257 melanoma = test system: UACC-257 melanoma
HCC-2998 colon = test system: HCC-2998 colon
A549 NSCLC = test system: A549 NSCLC
MOLT-4 leukemia = test system: MOLT-4 leukemia
HT29 colon = test system: HT29 colon
MCF7 breast = test system: MCF7 breast
SW-620 colon = test system: SW-620 colon
DU-145 prostate = test system: DU-145 prostate
LOX IMVI melanoma = test system: LOX IMVI melanoma
CCRF-CEM leukemia = test system: CCRF-CEM leukemia
SK-OV-3 ovarian = test system: SK-OV-3 ovarian

CCNC(=O)Oc1ccc(/C(=C(/C)Cc2ccc(OC)cc2)c2ccc(OCCN(CC)CC)cc2)cc1
GI50 (SF-268 CNS): 1980 nM | TGI (SF-268 CNS): 4750 nM | GI50 (SK-MEL-28 melanoma): 1760 nM | TGI (SK-MEL-28 melanoma): 3530 nM | GI50 (SF-539 CNS): 1610 nM | TGI (SF-539 CNS): 3250 nM | GI50 (SK-MEL-5 melanoma): 1550 nM | TGI (SK-MEL-5 melanoma): 2930 nM | GI50 (HOP-62 NSCLC): 1680 nM | TGI (HOP-62 NSCLC): 4140 nM | GI50 (SN12C renal): 1930 nM | TGI (SN12C renal): 3820 nM | GI50 (NCI-H460 lung): 1850 nM | TGI (NCI-H460 lung): 3500 nM | GI50 (SF-295 CNS): 1660 nM | TGI (SF-295 CNS): 3250 nM | GI50 (TK-10 renal): 2030 nM | TGI (TK-10 renal): 6050 nM | GI50 (COLO 205 colon): 1940 nM | TGI (COLO 205 colon): 3820 nM | GI50 (OVCAR-4 ovarian): 2310 nM | TGI (OVCAR-4 ovarian): 7840 nM | GI50 (SK-MEL-2 melanoma): 1850 nM | TGI (SK-MEL-2 melanoma): 3620 nM | GI50 (RXF 393 renal): 1900 nM | TGI (RXF 393 renal): 3620 nM | GI50 (MDA-MB-435): 1670 nM | TGI (MDA-MB-435): 3180 nM | GI50 (SNB-19 CNS): 2570 nM | TGI (SNB-19 CNS): 6160 nM | GI50 (BT-549 breast): 1730 nM | TGI (BT-549 breast): 4160 nM | GI50 (SR leukemia): 1760 nM | TGI (SR leukemia): 5960 nM | GI50 (KM12 colon): 2010 nM | TGI (KM12 colon): 4580 nM | GI50 (UACC-62 melanoma): 1860 nM | TGI (UACC-62 melanoma): 3380 nM | GI50 (ACHN renal): 1690 nM | TGI (ACHN renal): 3180 nM | GI50 (UO-31 renal): 1520 nM | TGI (UO-31 renal): 3020 nM | GI50 (OVCAR-3 ovarian): 1690 nM | TGI (OVCAR-3 ovarian): 3340 nM | GI50 (MALME-3M melanoma): 1640 nM | TGI (MALME-3M melanoma): 3220 nM | GI50 (NCI-H522 lung): 2160 nM | TGI (NCI-H522 lung): 4170 nM | GI50 (EKVX NSCLC): 1700 nM | TGI (EKVX NSCLC): 5030 nM | GI50 (U251 CNS): 1730 nM | TGI (U251 CNS): 3200 nM | GI50 (786-0 renal): 1390 nM | TGI (786-0 renal): 2880 nM | GI50 (HS 578T breast): 2180 nM | TGI (HS 578T breast): 5160 nM | GI50 (OVCAR-5 ovarian): 3420 nM | TGI (OVCAR-5 ovarian): 12800 nM | GI50 (IGROV1 ovarian): 2590 nM | TGI (IGROV1 ovarian): 6870 nM | GI50 (SNB-75 CNS): 1690 nM | TGI (SNB-75 CNS): 4930 nM | GI50 (OVCAR-8 ovarian): 1800 nM | TGI (OVCAR-8 ovarian): 3590 nM | GI50 (T-47D breast): 1300 nM | TGI (T-47D breast): 4230 nM | GI50 (HCT-116 colon): 1570 nM | TGI (HCT-116 colon): 3110 nM | GI50 (M14 melanoma): 1720 nM | TGI (M14 melanoma): 3620 nM | GI50 (HCT-15 colon): 1510 nM | TGI (HCT-15 colon): 3060 nM | GI50 (HL-60(TB) leukemia): 1940 nM | TGI (HL-60(TB) leukemia): 4560 nM | GI50 (NCI/ADR-RES ovarian): 2990 nM | TGI (NCI/ADR-RES ovarian): 11500 nM | GI50 (NCI-H226 lung): 2990 nM | TGI (NCI-H226 lung): 12600 nM | GI50 (A498 renal): 2580 nM | TGI (A498 renal): 11100 nM | GI50 (NCI-H23 lung): 2090 nM | TGI (NCI-H23 lung): 5350 nM | GI50 (MDA-MB-231 breast): 1780 nM | TGI (MDA-MB-231 breast): 3380 nM | GI50 (CAKI-1 renal): 1640 nM | TGI (CAKI-1 renal): 3840 nM | GI50 (RPMI-8226 leukemia): 1990 nM | TGI (RPMI-8226 leukemia): 4500 nM | GI50 (K-562 leukemia): 2000 nM | TGI (K-562 leukemia): 6090 nM | GI50 (UACC-257 melanoma): 1790 nM | TGI (UACC-257 melanoma): 3420 nM | GI50 (HCC-2998 colon): 1700 nM | TGI (HCC-2998 colon): 3290 nM | GI50 (A549 NSCLC): 1870 nM | TGI (A549 NSCLC): 3620 nM | GI50 (MOLT-4 leukemia): 2640 nM | TGI (MOLT-4 leukemia): 9710 nM | GI50 (HT29 colon): 2020 nM | TGI (HT29 colon): 3960 nM | GI50 (MCF7 breast): 621 nM | TGI (MCF7 breast): 2410 nM | GI50 (SW-620 colon): 1810 nM | TGI (SW-620 colon): 3460 nM | GI50 (DU-145 prostate): 2360 nM | TGI (DU-145 prostate): 5830 nM | GI50 (LOX IMVI melanoma): 1660 nM | TGI (LOX IMVI melanoma): 3220 nM | GI50 (CCRF-CEM leukemia): 2660 nM | TGI (CCRF-CEM leukemia): 7960 nM | GI50 (SK-OV-3 ovarian): 2840 nM | TGI (SK-OV-3 ovarian): 13300 nM
